Values joined by “and” are separate entries in the source; they are usually repeats but may differ in a detail not shown here. Equal values may be shown once.

For the assay, the target named is cortisol synthase (CYP11B1) (Macaca fascicularis, UniProt A0A2K5ULY1). Description: Inhibition of Cortisol Synthesis. The class given is biochemical, cynomolgus monkey. The conditions noted are these: cynomolgus adrenal gland mitochondria; 150 units of CYP11B1, 11-deoxycortisol as substrate, cortisol measured as product. In a few lines: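 Cynomolgus adrenal mitochondria as enzyme source (1 unit = 1 pmol product/h); 150 units CYP11B1 with 11-deoxycortisol substrate in 100 mM potassium phosphate pH 7.4, 1% DMSO, started with 1 mM NADPH, 90 min at 37 °C. Cortisol quantified by mass spectrometry; no-NADPH blank as 0%, no-compound as 100% activity.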
Consider `CN(C)C(=O)Cc1cncc(C2COc3c(cccc3C(N)=O)O2)c1` (single isomer, unassigned) [Cpd 29B, 2-[5-[2-(Dimethylamino)-2-oxo-ethyl]-3-pyridyl]-2,3-dihydro-1,4-benzodioxine-5-carboxamide], for which the IC50 – broadly, the concentration that gives 50% inhibition – was > 30 µM.
With `N#Cc1cccc2c1OCC(c1cncc(CNC(=O)C3CC3)c1)O2` (single isomer, unassigned) [Cpd 39A, Cyclopropanecarboxylic acid [5-(5-cyano-2,3-dihydro-benzo[1,4]dioxin-2-yl)-pyridin-3-ylmethyl]-amide], the half-maximal inhibitory concentration (IC50) came out at 7.3 µM. This lies in the single-digit micromolar range.
As for `CN1C(=O)CCC1c1cncc(C2COc3c(cccc3C(N)=O)O2)c1` (single isomer, unassigned) [Cpd 6AB, 2-[5-(-1-Methyl-5-oxo-pyrrolidin-2-yl)-pyridin-3-yl]-2,3-dihydro-benzo[1,4]dioxine-5-carboxylic acid amide], the midpoint of inhibition, the IC50, lay at 10 µM. The IC50 values of the last two compounds are within 1.5-fold of each other.
With `NC(=O)c1cccc2c1OCC(c1cncc(CC(=O)N3CCC(F)(F)CC3)c1)O2` (single isomer, unassigned) [Cpd 30B, 2-{5-[2-(4,4-Difluoro-piperidin-1-yl)-2-oxo-ethyl]-pyridin-3-yl}-2,3-dihydro-benzo[1,4]dioxine-5-carboxylic acid amide], the IC50 was 24 µM.
`CC(=O)N1CC[C@@H](Oc2cncc(C3COc4c(cccc4C(N)=O)O3)c2)C1` (single isomer, unassigned) [Cpd 18B]: the IC50 worked out at 1.1 µM. Against the preceding compound, the IC50 is about 22-fold lower.
`Cc1c(C(C)O)cncc1C1COc2c(cccc2C(N)=O)O1` (single isomer, unassigned) [Cpd 27B, 2-[5-(1-Hydroxy-ethyl)-4-methyl-pyridin-3-yl]-2,3-dihydro-benzo[1,4]dioxine-5-carboxylic acid amide] returned an IC50 of 5 µM.
As to `NC(=O)c1cccc2c1OCC(c1cncc(C3(O)CCCCC3)c1)O2` (single isomer, unassigned) [Cpd 11A, 2-[5-(1-Hydroxy-cyclohexyl)-pyridin-3-yl]-2,3-dihydro-benzo[1,4]dioxine-5-carboxylic acid amide], the IC50 is 24 µM.
In the case of `NC(=O)c1cccc2c1OCC(c1cncc(CN3CCOC3=O)c1)O2` (single isomer, unassigned) [Cpd 31B, 2-[5-(2-Oxo-oxazolidin-3-ylmethyl)-pyridin-3-yl]-2,3-dihydro-benzo[1,4]dioxine-5-carboxylic acid amide] it was > 30 µM.
With `N#CC1(c2cncc(C3COc4c(cccc4C(N)=O)O3)c2)CC1` (single isomer, unassigned) [Cpd 2A, 2-[5-(1-Cyano-cyclopropyl)-pyridin-3-yl]-2,3-dihydro-benzo[1,4]dioxine-5-carboxylic acid amide], the IC50 came out at 0.06 µM.
In the case of `NC(=O)c1cccc2c1OCC(c1cncc(C(O)C(F)(F)F)c1)O2` (single isomer, unassigned) [Cpd 49BA, 2-[5-(2,2,2-Trifluoro-1-hydroxy-ethyl)-pyridin-3-yl]-2,3-dihydro-benzo[1,4]dioxine-5-carboxylic acid amide] it was 2.5 µM and 1.1 µM.
For the compound `NC(=O)c1cccc2c1OCC(c1cncc(CO)c1)O2` (single isomer, unassigned) [Cpd 20B, 2-(5-Hydroxymethyl-pyridin-3-yl)-2,3-dihydro-benzo[1,4]dioxine-5-carboxylic acid amide], half-maximal inhibition (IC50) required 6.8 µM.
The compound `Cc1ccncc1C1COc2c(cccc2C(N)=O)O1` (single isomer, unassigned) [Cpd 23B, 2-(4-Methyl-pyridin-3-yl)-2,3-dihydro-benzo[1,4]dioxine-5-carboxylic acid amide] registered an IC50 of 2 µM. Against the preceding compound, the IC50 is about 3.4-fold lower.
As to `CC(=O)N1CC(Oc2cncc(C3COc4c(cccc4C(N)=O)O3)c2)C1` (single isomer, unassigned) [Cpd 19B, 2-[5-(1-Acetyl-azetidin-3-yloxy)-pyridin-3-yl]-2,3-dihydro-benzo[1,4]dioxine-5-carboxylic acid amide], half-maximal inhibition (IC50) required 24 µM.
In the case of `NC(=O)c1cccc2c1OCC(c1cncc(C3(O)CCOCC3)c1)O2` (single isomer, unassigned) [Cpd 1B, 2-[5-(4-Hydroxy-tetrahydro-pyran-4-yl)-pyridin-3-yl]-2,3-dihydro-benzo[1,4]dioxine-5-carboxylic acid amide] it was 24 µM; in that of `NC(=O)c1cccc2c1OCC(c1cccnc1)O2` (single isomer, unassigned) [Cpd 4B, 2-Pyridin-3-yl-2,3-dihydro-benzo[1,4]dioxine-5-carboxylic acid amide], 2.5 µM.
`NC(=O)c1cccc2c1OCC(c1cncc(C3(F)CCOCC3)c1)O2` (single isomer, unassigned) [Cpd 32B, 2-[5-(4-Fluoro-tetrahydro-pyran-4-yl)-pyridin-3-yl]-2,3-dihydro-benzo[1,4]dioxine-5-carboxylic acid amide] registered an IC50 of 0.35 µM. Against the preceding compound, the IC50 is about 7.1-fold lower.
`C[C@H](O)c1c(F)cncc1C1COc2c(cccc2C(N)=O)O1` (single isomer, unassigned) [Cpd 56B] showed an IC50 of 14 µM. Compared with the last compound, the IC50 is about 40-fold higher.
For `CN(Cc1cncc(C2COc3c(cccc3C(N)=O)O2)c1)C(=O)C1CC1` (single isomer, unassigned) [Cpd 24B, 2-{5-[(Cyclopropanecarbonyl-methyl-amino)-methyl]-pyridin-3-yl}-2,3-dihydro-benzo[1,4]dioxine-5-carboxylic acid amide], 25 µM corresponded to half-maximal inhibition (IC50).
`Cc1c(C#N)cncc1C1COc2c(cccc2C(N)=O)O1` (single isomer, unassigned) [Cpd 61A, 2-(5-cyano-4-methyl-pyridin-3-yl)-2,3-dihydro-benzo[1,4]dioxine-5-carboxylic acid amide] came in with an IC50 of 25 µM.
As to `C[C@@H](O)c1c(F)cncc1C1COc2c(cccc2C(N)=O)O1` (single isomer, unassigned) [Cpd 57B], inhibition was half-maximal at 15 µM (IC50).
In the case of `CS(=O)(=O)COc1cncc(C2COc3c(C#N)cccc3O2)c1` (single isomer, unassigned) [Cpd 44A, 2-(5-Methanesulfonylmethoxy-pyridin-3-yl)-2,3-dihydro-benzo[1,4]dioxine-5-carbonitrile] it was 2.2 µM; in that of `CC(C)C(=O)N1CCC(Oc2cncc(C3COc4c(cccc4C(N)=O)O3)c2)CC1` (single isomer, unassigned) [Cpd 48A, 2-[5-(1-isobutyryl-piperidin-4-yloxy)-pyridin-3-yl]-2,3-dihydro-benzo[1,4]dioxine-5-carboxylic acid amide], 3.1 µM.
`NC(=O)c1cccc2c1OCC(c1cncc(-c3ccc(S(N)(=O)=O)cc3)c1)O2` (single isomer, unassigned) [Cpd 16B, 2-[5-(4-Sulfamoyl-phenyl)-pyridin-3-yl]-2,3-dihydro-benzo[1,4]dioxine-5-carboxylic acid amide] displayed an IC50 of 0.054 µM. This IC50 is about 57-fold lower than that of the compound before.
Consider `NC(=O)c1cccc2c1OCC(c1cncc(F)c1)O2` (single isomer, unassigned) [Cpd 51B, 2-(5-Fluoro-pyridin-3-yl)-2,3-dihydro-benzo[1,4]dioxine-5-carboxylic acid amide], for which the IC50 came out at 20 µM.
As for `CC(=O)N1CCC(Oc2cncc(C3COc4c(cccc4C(N)=O)O3)c2)CC1` (single isomer, unassigned) [Cpd 12B, 2-[5-(1-Acetyl-piperidin-4-yloxy)-pyridin-3-yl]-2,3-dihydro-benzo[1,4]dioxine-5-carboxylic acid amide], the IC50 is 2 µM.

(Values after patent US9745289B2, “Aldosterone synthase inhibitors” (Boehringer Ingelheim International GmbH, priority 2014, dated 2017).)
